Source: the NIST ThermoML archive (doi:10.1016/j.jct.2017.07.024)

Columns and labels:
[1] = wn = mass fraction of the nth substance listed; conditions: for surface tension liquid-gas: Maximal bubble pressure; for mass density: 100 kPa, Liquid, Vibrating tube method
[2] = refractive index (Na D-line) (dimensionless); wn = mass fraction of the nth substance listed; conditions: 100 kPa, Liquid, Standard Abbe refractometry

CCCCCCn1cc[n+](C)c1.C[C@@H](O)[C@H](N)C(=O)[O-] [1-hexyl-3-methylimidazolium DL-threoninate] + O
Conditions	mass density, [1] [kg/m3]	refractive index, [2]	surface tension liquid-gas, [1] [mN/m]
288.15 K, w2 = 0.006	1089.58	1.5042	37.4
288.15 K, w2 = 0.0091	1089.35	1.5038	37.6
288.15 K, w2 = 0.012	1089.16	1.5034	37.8
288.15 K, w2 = 0.0149	1088.99	1.5031	38
288.15 K, w2 = 0.0172	1088.81	1.5028	38.2
293.15 K, w2 = 0.006	1086.27	1.5026	37
293.15 K, w2 = 0.0091	1086.04	1.5023	37.2
293.15 K, w2 = 0.012	1085.85	1.502	37.4
293.15 K, w2 = 0.0149	1085.68	1.5017	37.6
293.15 K, w2 = 0.0172	1085.5	1.5014	37.8
298.15 K, w2 = 0.006	1082.96	1.5012	36.7
298.15 K, w2 = 0.0091	1082.73	1.5009	36.9
298.15 K, w2 = 0.012	1082.54	1.5006	37.1
298.15 K, w2 = 0.0149	1082.37	1.5003	37.3
298.15 K, w2 = 0.0172	1082.19	1.5	37.5
303.15 K, w2 = 0.006	1079.61	1.4994	36.4
303.15 K, w2 = 0.0091	1079.38	1.4991	36.7
303.15 K, w2 = 0.012	1079.19	1.4988	36.9
303.15 K, w2 = 0.0149	1079.01	1.4985	37.1
303.15 K, w2 = 0.0172	1078.82	1.4982	37.3
308.15 K, w2 = 0.006	1076.29	1.4981	36.1
308.15 K, w2 = 0.0091	1076.06	1.4978	36.4
308.15 K, w2 = 0.012	1075.86	1.4974	36.6
308.15 K, w2 = 0.0149	1075.69	1.4971	36.8
308.15 K, w2 = 0.0172	1075.49	1.4968	37
313.15 K, w2 = 0.006	1073	1.4964	35.8
313.15 K, w2 = 0.0091	1072.76	1.4961	36.1
313.15 K, w2 = 0.012	1072.56	1.4958	36.3
313.15 K, w2 = 0.0149	1072.38	1.4955	36.5
313.15 K, w2 = 0.0172	1072.18	1.4952	36.7
318.15 K, w2 = 0.006	1069.54	1.495	35.5
318.15 K, w2 = 0.0091	1069.29	1.4947	35.8
318.15 K, w2 = 0.012	1069.09	1.4944	36
318.15 K, w2 = 0.0149	1068.91	1.4941	36.3
318.15 K, w2 = 0.0172	1068.71	1.4938	36.5
323.15 K, w2 = 0.006	1066.37	1.4933	35.2
323.15 K, w2 = 0.0091	1066.12	1.4929	35.5
323.15 K, w2 = 0.012	1065.91	1.4926	35.7
323.15 K, w2 = 0.0149	1065.72	1.4922	36
323.15 K, w2 = 0.0172	1065.51	1.4919	36.2
328.15 K, w2 = 0.006	1063.07	1.4918	34.9
328.15 K, w2 = 0.0091	1062.82	1.4914	35.2
328.15 K, w2 = 0.012	1062.61	1.4911	35.4
328.15 K, w2 = 0.0149	1062.42	1.4907	35.7
328.15 K, w2 = 0.0172	1062.21	1.4904	35.9

CCCn1cc[n+](C)c1.C[C@@H](O)[C@H](N)C(=O)[O-] [1-propyl-3-methylimidazolium DL-threoninate] + O
Conditions	mass density, [1] [kg/m3]	refractive index, [2]	surface tension liquid-gas, [1] [mN/m]
288.15 K, w2 = 0.0065	1150.46	1.5132	42
288.15 K, w2 = 0.0092	1150.15	1.5127	42.2
288.15 K, w2 = 0.0116	1149.81	1.5121	42.4
288.15 K, w2 = 0.0135	1149.56	1.5117	42.6
288.15 K, w2 = 0.0161	1149.22	1.5111	42.8
293.15 K, w2 = 0.0065	1147.75	1.5116	41.7
293.15 K, w2 = 0.0092	1147.33	1.5111	41.9
293.15 K, w2 = 0.0116	1146.94	1.5105	42.1
293.15 K, w2 = 0.0135	1146.61	1.5101	42.3
293.15 K, w2 = 0.0161	1146.22	1.5095	42.5
298.15 K, w2 = 0.0065	1143.37	1.5101	41.3
298.15 K, w2 = 0.0092	1142.89	1.5096	41.6
298.15 K, w2 = 0.0116	1142.43	1.509	41.8
298.15 K, w2 = 0.0135	1142.12	1.5086	42
298.15 K, w2 = 0.0161	1141.66	1.508	42.2
303.15 K, w2 = 0.0065	1139.97	1.5088	41
303.15 K, w2 = 0.0092	1139.49	1.5082	41.3
303.15 K, w2 = 0.0116	1139.07	1.5077	41.5
303.15 K, w2 = 0.0135	1138.7	1.5073	41.7
303.15 K, w2 = 0.0161	1138.27	1.5068	41.9
308.15 K, w2 = 0.0065	1136.59	1.5074	40.7
308.15 K, w2 = 0.0092	1136.11	1.5069	41
308.15 K, w2 = 0.0116	1135.68	1.5064	41.2
308.15 K, w2 = 0.0135	1135.31	1.5061	41.4
308.15 K, w2 = 0.0161	1134.87	1.5056	41.6
313.15 K, w2 = 0.0065	1133.16	1.506	40.4
313.15 K, w2 = 0.0092	1132.71	1.5055	40.7
313.15 K, w2 = 0.0116	1132.22	1.5052	40.9
313.15 K, w2 = 0.0135	1131.88	1.5048	41.1
313.15 K, w2 = 0.0161	1131.4	1.5044	41.3
318.15 K, w2 = 0.0065	1129.72	1.5044	40.1
318.15 K, w2 = 0.0092	1129.19	1.504	40.4
318.15 K, w2 = 0.0116	1128.78	1.5036	40.6
318.15 K, w2 = 0.0135	1128.43	1.5033	40.8
318.15 K, w2 = 0.0161	1127.95	1.5028	41.1
323.15 K, w2 = 0.0065	1126.27	1.5029	39.8
323.15 K, w2 = 0.0092	1125.8	1.5024	40.1
323.15 K, w2 = 0.0116	1125.32	1.5021	40.4
323.15 K, w2 = 0.0135	1124.96	1.5018	40.6
323.15 K, w2 = 0.0161	1124.48	1.5013	40.9
328.15 K, w2 = 0.0065	1122.82	1.5015	39.5
328.15 K, w2 = 0.0092	1122.34	1.5011	39.8
328.15 K, w2 = 0.0116	1121.86	1.5007	40.1
328.15 K, w2 = 0.0135	1121.5	1.5004	40.4
328.15 K, w2 = 0.0161	1121	1.4999	40.7

CCCCCn1cc[n+](C)c1.C[C@@H](O)[C@H](N)C(=O)[O-] [1-pentyl-3-methylimidazolium DL-threoninate] + O
Conditions	mass density, [1] [kg/m3]	refractive index, [2]	surface tension liquid-gas, [1] [mN/m]
288.15 K, w2 = 0.0066	1107.18	1.5071	38.8
288.15 K, w2 = 0.0097	1106.95	1.5067	39
288.15 K, w2 = 0.0119	1106.76	1.5064	39.2
288.15 K, w2 = 0.0141	1106.59	1.5061	39.4
288.15 K, w2 = 0.0165	1106.41	1.5058	39.6
293.15 K, w2 = 0.0066	1103.87	1.5056	38.4
293.15 K, w2 = 0.0097	1103.64	1.5053	38.6
293.15 K, w2 = 0.0119	1103.45	1.505	38.8
293.15 K, w2 = 0.0141	1103.28	1.5047	39
293.15 K, w2 = 0.0165	1103.1	1.5044	39.2
298.15 K, w2 = 0.0066	1100.56	1.504	38.2
298.15 K, w2 = 0.0097	1100.33	1.5037	38.4
298.15 K, w2 = 0.0119	1100.14	1.5034	38.6
298.15 K, w2 = 0.0141	1099.97	1.5032	38.8
298.15 K, w2 = 0.0165	1099.79	1.5028	39
303.15 K, w2 = 0.0066	1097.21	1.5024	37.8
303.15 K, w2 = 0.0097	1096.98	1.5021	38.1
303.15 K, w2 = 0.0119	1096.79	1.5017	38.3
303.15 K, w2 = 0.0141	1096.61	1.5015	38.5
303.15 K, w2 = 0.0165	1096.42	1.5012	38.7
308.15 K, w2 = 0.0066	1093.89	1.5009	37.5
308.15 K, w2 = 0.0097	1093.66	1.5006	37.8
308.15 K, w2 = 0.0119	1093.46	1.5003	38
308.15 K, w2 = 0.0141	1093.29	1.5	38.2
308.15 K, w2 = 0.0165	1093.09	1.4997	38.4
313.15 K, w2 = 0.0066	1090.6	1.4992	37.2
313.15 K, w2 = 0.0097	1090.36	1.4988	37.5
313.15 K, w2 = 0.0119	1090.16	1.4984	37.7
313.15 K, w2 = 0.0141	1089.98	1.4982	37.9
313.15 K, w2 = 0.0165	1089.78	1.4978	38.1
318.15 K, w2 = 0.0066	1087.14	1.4977	36.9
318.15 K, w2 = 0.0097	1086.89	1.4974	37.2
318.15 K, w2 = 0.0119	1086.69	1.497	37.4
318.15 K, w2 = 0.0141	1086.51	1.4967	37.6
318.15 K, w2 = 0.0165	1086.31	1.4963	37.9
323.15 K, w2 = 0.0066	1083.97	1.4961	36.6
323.15 K, w2 = 0.0097	1083.72	1.4957	36.9
323.15 K, w2 = 0.0119	1083.51	1.4954	37.1
323.15 K, w2 = 0.0141	1083.32	1.4951	37.3
323.15 K, w2 = 0.0165	1083.11	1.4947	37.6
328.15 K, w2 = 0.0066	1080.67	1.4945	36.3
328.15 K, w2 = 0.0097	1080.42	1.4941	36.6
328.15 K, w2 = 0.0119	1080.21	1.4937	36.8
328.15 K, w2 = 0.0141	1080.02	1.4934	37
328.15 K, w2 = 0.0165	1079.81	1.4931	37.3
